# In PMC10015785, “A proteasomal β5 subunit of Haemonchus contortus with a role in the growth, development and life span” (Parasites & Vectors, 2023):
# Biological target: T1, proteasomal β5 subunit (Hc-PBS-5) (Haemonchus contortus, UniProt A0A7I5E5W5)
# T1 sequence (A0A7I5E5W5 65-284): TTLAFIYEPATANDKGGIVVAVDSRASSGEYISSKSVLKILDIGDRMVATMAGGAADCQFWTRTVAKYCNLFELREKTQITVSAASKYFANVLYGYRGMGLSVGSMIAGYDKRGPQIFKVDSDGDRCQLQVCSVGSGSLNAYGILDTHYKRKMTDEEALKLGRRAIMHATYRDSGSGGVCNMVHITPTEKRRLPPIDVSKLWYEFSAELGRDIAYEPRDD
# Format: biochemical
smiles,measurement,value
CC(C)C[C@H](NC(=O)[C@H](Cc1ccccc1)NC(=O)c1cnccn1)B(O)O [bortezomib],IC50,622 nM
